The MIC is the lowest concentration that inhibits growth of the organism.

These results are taken from ChEMBL document CHEMBL1126997, “Synthesis and antibacterial activity of two catechol-bearing penems” (1993).

Common to all, as to assay type: functional
Test [1] relates to Proteus mirabilis. In words: Compound was tested in vitro for antimicrobial activity against Proteus mirabilis 977.
The subject of test [2] is Escherichia coli. In words: Compound was tested in vitro for antimicrobial activity against Escherichia coli DC0.
Test [3] has as its system Pseudomonas aeruginosa. Briefly: Compound was tested in vitro for antimicrobial activity against Pseudomonas aeruginosa Dagleish: beta-lactamase producer.
Test [4] relates to Escherichia coli. In words: Compound was tested in vitro for antimicrobial activity against Escherichia coli NCTC 10418.
The subject of test [5] is Pseudomonas aeruginosa. In words: Compound was tested in vitro for antimicrobial activity against Pseudomonas aeruginosa K799.
For test [6], the system named is Pseudomonas aeruginosa. Briefly: Compound was tested in vitro for antimicrobial activity against Pseudomonas aeruginosa NCTC 10662.
Test [7] deals with Providencia stuartii. Briefly: Compound was tested in vitro for antimicrobial activity against Providencia stuartii T90.
For test [8], the system named is Escherichia coli. Briefly: Compound was tested in vitro for antimicrobial activity against Escherichia coli DC2: cell wall deficient mutant strain.

Bounds are passed on as bounds.

Take `C[C@@H](O)[C@H]1C(=O)N2C(C(=O)[O-])=C(COC(=O)c3ccc(O)c(O)c3)S[C@H]12.[Na+]`: the MIC in test [1] is 32 µg/mL; in test [2], 1 µg/mL; in test [3], greater than 64 µg/mL; in test [4] it was 0.5 µg/mL; in test [5] it was greater than 64 µg/mL; in test [6], 32 µg/mL. For the same compound, the MIC in test [7] is 32 µg/mL; in test [8], 0.12 µg/mL.

As for `O=C([O-])C1=C(CO)S[C@@H]2CC(=O)N12.[Na+]`, the minimal inhibitory concentration (MIC) in test [1] is 32 µg/mL; in test [2], 32 µg/mL; in test [3], greater than 64 µg/mL; in test [4], 16 µg/mL; in test [5], greater than 64 µg/mL; in test [6], greater than 64 µg/mL. The MIC in test [7] and in test [8] was 32 µg/mL throughout.

In the case of `CC(=O)Oc1cccc(C(=O)OCC2=C(C(=O)[O-])N3C(=O)C[C@H]3S2)c1OC(C)=O.[Na+]`, the MIC in test [1] was 16 µg/mL; in test [2], greater than 32 µg/mL; in test [3] it was greater than 32 µg/mL; in test [4], 8 µg/mL; in test [5] it was greater than 32 µg/mL; in test [6] it was 8 µg/mL. Also, the values for the MIC in test [7] and in test [8] were greater than 32 µg/mL and 0.5 µg/mL, respectively.

Consider `C[C@@H](O)[C@H]1C(=O)N2C(C(=O)[O-])=C(CO)S[C@H]12.[Na+]`, for which the minimum inhibitory concentration (MIC) in test [1] was 16 µg/mL; in test [2], 8 µg/mL; in test [3], 64 µg/mL; in test [4], 8 µg/mL; in test [5] it was 64 µg/mL; in test [6] it was 64 µg/mL. Also, the MIC in test [7] is 16 µg/mL; in test [8] it was 8 µg/mL.
